Data: patent US6555558B2, “Oral dosage self-emulsifying formulations of pyranone protease inhibitors” (priority 2000, dated 2003)

What was measured:
[1] = test system: HIV-1 variants resistant to the peptidomimetic protease inhibitors; conditions: cited from earlier work
[2] = solubility in polyethylene glycols; format: physicochemical; conditions: polyethylene glycols within a defined average molecular weight range
Method: Microemulsion phase diagrams were constructed for systems containing various lipophilic phases, hydrophilic phases, and surfactants. After numerous studies it was determined that a number of pyranone protease inhibitors, including tipranavir, were soluble in polyethylene glycols within a defined average molecular weight range, and could be used to replace propylene glycol and ethanol found in conventional microemulsion formulations of such drugs.

[3] = test system: HIV; conditions: antiviral cell culture; cited from earlier work
[4] = test system: viral aspartate proteases of a variety of HIV type 1 laboratory strains and clinical isolates; conditions: including those resistant to zidovudine and delavirdine; cited from earlier work
[5] = target: T1, HIV protease (Human immunodeficiency virus type 1 group M subtype B, UniProt P04585); conditions: in vitro enzymatic inhibition; cited from earlier work
T1 construct: one of the smallest enzymes yet characterized (consisting of only 99 amino acids)

[6] = test system: clinical isolates with a wide range of resistance to currently available peptidomimetic protease inhibitors; conditions: 105 viruses with more than tenfold resistance to three or four proteinase inhibitors, average 6.1 protease mutations; cited from earlier work
[7] = cited from earlier work
[8] = free acid form; pH of from about 6 to about 7; cited from earlier work
[9] = test system: isolates resistant to indinavir, ritonavir and nelfinavir; saquinavir resistance; conditions: cited from earlier work

CCC[C@@]1(CCc2ccccc2)CC(O)=C([C@H](CC)c2cccc(NS(=O)(=O)c3ccc(C(F)(F)F)cn3)c2)C(=O)O1 [tipranavir]
activity against HIV-1 variants resistant to peptidomimetic protease inhibitors [1]: highly active
solubility in polyethylene glycols [2]: soluble
IC90 [3]: ~100 nM
potency against viral aspartate proteases [4]: excellent potency
Ki [5]: ~0.008 nM
share of resistant viruses susceptible [6]: ninety
Log P [7]: about 6.1
aqueous solubility [8]: about 10 μg/ml
antiviral activity against isolates resistant to indinavir, ritonavir and nelfinavir [9]: retain sustained antiviral activity
